The values that follow come from patent publication US20230286970A1, “NOVEL OXADIAZOLE-BASED SELECTIVE HDAC6 INHIBITORS” (ITALFARMACO S.P.A., priority 2020, published 2023).

One experiment has as its target recombinant human HDAC6 (Homo sapiens (Human), UniProt Q9UBN7). As to the kind of experiment: Enzymatic screening, HDAC6 inhibition (fluorogenic FdL_G substrate). It counts as biochemical. The gist of the method:
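Enzyme was preincubated with compound (8 doses, triplicate, 1% DMSO) in 25 mM Tris-HCl pH 8, 130 mM NaCl, 0.05% Tween-20, 10% glycerol, with BSA. A FLUOR DE LYS-Green substrate was then added, and fluorescence was read after developer plus 2 μM TSA.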

A further experiment concerns the target recombinant human HDAC1 (Homo sapiens (Human), UniProt Q13547). As to the kind of experiment: Enzymatic screening, HDAC1 inhibition (fluorogenic FdL_G substrate). It counts as biochemical. Summed up: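 Recombinant human HDAC1 inhibition was measured fluorometrically using the FLUOR DE LYS-Green (FdL_G) substrate. Compounds at 8 doses (1% DMSO final) in Tris-HCl pH 8 buffer with NaCl, Tween-20 and glycerol were preincubated in triplicate with enzyme and 1 mg/mL BSA, then given substrate. Developer I plus 2 μM TSA was added, and fluorescence read after 25 minutes in the dark.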

recombinant human HDAC1, sequence (Q13547 whole entry): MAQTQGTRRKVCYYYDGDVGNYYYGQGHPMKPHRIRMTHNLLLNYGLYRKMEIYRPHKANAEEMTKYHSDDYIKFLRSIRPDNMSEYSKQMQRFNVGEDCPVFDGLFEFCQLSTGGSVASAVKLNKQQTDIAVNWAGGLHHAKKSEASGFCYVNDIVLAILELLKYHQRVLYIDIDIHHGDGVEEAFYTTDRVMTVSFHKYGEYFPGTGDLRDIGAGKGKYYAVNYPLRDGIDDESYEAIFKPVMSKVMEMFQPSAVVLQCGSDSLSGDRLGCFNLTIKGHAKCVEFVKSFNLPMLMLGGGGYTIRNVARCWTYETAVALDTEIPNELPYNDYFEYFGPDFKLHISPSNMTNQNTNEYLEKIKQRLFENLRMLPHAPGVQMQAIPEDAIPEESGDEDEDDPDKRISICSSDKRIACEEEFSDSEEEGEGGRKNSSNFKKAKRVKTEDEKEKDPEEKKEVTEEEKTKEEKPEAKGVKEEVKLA
recombinant human HDAC6, sequence (Q9UBN7 whole entry): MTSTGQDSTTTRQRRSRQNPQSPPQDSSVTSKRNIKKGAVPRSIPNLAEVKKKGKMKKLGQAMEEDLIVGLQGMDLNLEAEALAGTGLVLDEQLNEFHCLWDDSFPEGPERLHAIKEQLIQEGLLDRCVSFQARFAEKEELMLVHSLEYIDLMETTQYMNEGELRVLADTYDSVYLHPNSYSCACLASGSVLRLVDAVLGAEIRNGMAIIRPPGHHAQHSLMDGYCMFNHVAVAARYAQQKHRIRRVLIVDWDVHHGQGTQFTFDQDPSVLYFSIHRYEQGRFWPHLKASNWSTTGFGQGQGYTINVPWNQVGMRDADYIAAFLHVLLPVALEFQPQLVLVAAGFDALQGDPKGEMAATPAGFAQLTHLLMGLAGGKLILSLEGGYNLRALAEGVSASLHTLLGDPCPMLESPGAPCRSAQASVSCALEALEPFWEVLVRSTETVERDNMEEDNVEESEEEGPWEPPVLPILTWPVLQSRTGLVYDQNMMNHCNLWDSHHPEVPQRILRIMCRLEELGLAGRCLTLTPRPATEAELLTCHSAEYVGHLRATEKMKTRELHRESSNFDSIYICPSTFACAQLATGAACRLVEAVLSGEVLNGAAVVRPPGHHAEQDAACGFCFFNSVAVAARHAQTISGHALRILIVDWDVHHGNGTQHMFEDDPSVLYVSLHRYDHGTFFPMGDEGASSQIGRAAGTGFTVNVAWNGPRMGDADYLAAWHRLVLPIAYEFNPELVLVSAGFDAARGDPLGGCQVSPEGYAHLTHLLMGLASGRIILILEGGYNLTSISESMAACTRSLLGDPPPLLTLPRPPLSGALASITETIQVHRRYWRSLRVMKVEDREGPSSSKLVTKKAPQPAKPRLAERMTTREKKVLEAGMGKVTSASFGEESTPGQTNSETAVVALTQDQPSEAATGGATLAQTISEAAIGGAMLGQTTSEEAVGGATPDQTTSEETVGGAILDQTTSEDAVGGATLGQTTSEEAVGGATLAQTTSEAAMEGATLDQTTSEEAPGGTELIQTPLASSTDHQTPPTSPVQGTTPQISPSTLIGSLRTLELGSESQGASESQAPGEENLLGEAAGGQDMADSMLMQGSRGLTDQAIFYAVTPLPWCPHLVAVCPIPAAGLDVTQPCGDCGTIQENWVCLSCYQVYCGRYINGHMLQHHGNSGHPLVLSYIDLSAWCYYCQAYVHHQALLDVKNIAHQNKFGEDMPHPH

What is called IC50 is the point on the concentration scale where inhibition reaches its midpoint. Turning to `CC(C)(C)OC(=O)N1CCC2(C1)C(=O)Nc1ccc(-c3cn(Cc4ccc(-c5nnc(C(F)F)o5)cn4)nn3)cc12` (single isomer, unassigned) [compound 266, tert-butyl 5-[1-({5-[5-(difluoromethyl)-1,3,4-oxadiazol-2-yl]pyridin-2-yl}methyl)-1H-1,2,3-triazol-4-yl]-2-oxo-1,2-dihydrospiro[indole-3,3′-pyrrolidine]-1′-carboxylate], the results for the IC50 at recombinant human HDAC6 and on recombinant human HDAC1 were 35 nM and above 200000 nM, respectively.

Regarding `CNc1ccc2cc(-c3nnn(Cc4c(F)cc(-c5nnc(C(F)F)o5)cc4F)n3)ccc2n1` [compound 388, 6-(2-(4-(5-(difluoromethyl)-1,3,4-oxadiazol-2-yl)-2,6-difluorobenzyl)-2H-tetrazol-5-yl)-N-methylquinolin-2-amine], the 50% inhibitory concentration (IC50) at recombinant human HDAC6 worked out at 125 nM; on recombinant human HDAC1, 1e+06 nM.

With `CC(C)(C)OC(=O)N1CCC2(CC1)C(=O)Nc1ccc(-c3cn(Cc4ccc(-c5nnc(C(F)F)o5)cc4)nn3)cc12` [compound 216, tert-butyl 5-(1-(4-(5-(difluoromethyl)-1,3,4-oxadiazol-2-yl)benzyl)-1H-1,2,3-triazol-4-yl)-2-oxospiro[indoline-3,4′-piperidine]-1′-carboxylate], the IC50 was 151 nM on recombinant human HDAC6 and above 200000 nM on recombinant human HDAC1.

As for `Nc1cc(-c2nnn(Cc3c(F)cc(-c4nnc(C(F)F)o4)cc3F)n2)ccc1OC(=O)N1CCOCC1` [compound 160, 2-amino-4-(2-(4-(5-(difluoromethyl)-1,3,4-oxadiazol-2-yl)-2,6-difluorobenzyl)-2H-tetrazol-5-yl)phenyl morpholine-4-carboxylate], the IC50 on recombinant human HDAC6 is 74 nM; at recombinant human HDAC1, above 200000 nM.

As for `O=C1NCc2ccc(-c3cn(Cc4ccc(-c5nnc(C(F)F)o5)cn4)cn3)cc21` [Compd. 292, 6-(1-((5-(5-(difluoromethyl)-1,3,4-oxadiazol-2-yl)pyridin-2-yl)methyl)-1H-imidazol-4-yl)isoindolin-1-one], the 50% inhibitory concentration (IC50) at recombinant human HDAC6 was 30 nM; at recombinant human HDAC1 it was above 200000 nM.

As to `O=C(Nc1ccc(-c2nnn(Cc3ncc(-c4nnc(C(F)F)o4)cn3)n2)cn1)C(F)F` [compound 68, N-(5-(2-((5-(5-(difluoromethyl)-1,3,4-oxadiazol-2-yl)pyrimidin-2-yl)methyl)-2H-tetrazol-5-yl)pyridin-2-yl)-2,2-difluoroacetamide], the IC50 on recombinant human HDAC6 is 33 nM; at recombinant human HDAC1, above 200000 nM.

As for `CC(c1ccc(-c2nnc(C(F)F)o2)cc1)n1nnc(-c2ccc3c(c2)C(=O)N(C)CC3)n1` (stereo not shown) [compound 229, 7-(2-(1-(4-(5-(difluoromethyl)-1,3,4-oxadiazol-2-yl)phenyl)ethyl)-2H-tetrazol-5-yl)-2-methyl-3,4-dihydroisoquinolin-1 (2H)-one], the figures for the IC50 at recombinant human HDAC6 and at recombinant human HDAC1 were 179 nM and above 200000 nM, respectively.

As for `FC(F)c1nnc(-c2ccc(Cn3nnc(-c4cccc(-c5cnc(N6CCOCC6)s5)c4)n3)cc2)o1` [compd. 253, 4-(5-(3-(2-(4-(5-(difluoromethyl)-1,3,4-oxadiazol-2-yl)benzyl)-2H-tetrazol-5-yl)phenyl)thiazol-2-yl)morpholine], the IC50 at recombinant human HDAC6 is 352 nM; on recombinant human HDAC1 it was above 200000 nM.

For `CN(Cc1ccncc1)Cc1ccc(-c2nnn(Cc3ccc(-c4nnc(C(F)F)o4)cc3)n2)cc1` [compound 215, N-(4-(2-(4-(5-(difluoromethyl)-1,3,4-oxadiazol-2-yl)benzyl)-2H-tetrazol-5-yl)benzyl)-N-methyl-1-(pyridin-4-yl)methanamine], the figures for the half-maximal inhibitory concentration (IC50) at recombinant human HDAC6 and on recombinant human HDAC1 were 151 nM and above 200000 nM, respectively.

On to `FC(F)c1nnc(-c2ccc(Cn3nnc(-c4cccs4)n3)cc2)o1` [compd. 261, 2-(difluoromethyl)-5-(4-((5-(thiophen-2-yl)-2H-tetrazol-2-yl)methyl)phenyl)-1,3,4-oxadiazole], for which the values for the IC50 on recombinant human HDAC6 and on recombinant human HDAC1 were 181 nM and above 200000 nM, respectively.

With `FC(F)c1nnc(-c2ccc(Cn3nnc(C4(c5ccccn5)CC4)n3)cc2)o1` [compound 147, 2-(difluoromethyl)-5-(4-((5-(1-(pyridin-2-yl)cyclopropyl)-2H-tetrazol-2-yl)methyl)phenyl)-1,3,4-oxadiazole], the IC50 is 63 nM on recombinant human HDAC6 and above 200000 nM on recombinant human HDAC1.

On to `CNC(=O)Nc1ccc(-c2nnc(Cc3ccc(-c4nnc(C(F)F)o4)cc3)o2)cn1` [compd. 170, 1-(5-(5-(4-(5-(difluoromethyl)-1,3,4-oxadiazol-2-yl)benzyl)-1,3,4-oxadiazol-2-yl)pyridin-2-yl)-3-methylurea], for which the IC50 at recombinant human HDAC6 was 81 nM; at recombinant human HDAC1, above 200000 nM.

On to `Nc1nc2ccc(-c3cn(Cc4ccc(-c5nnc(C(F)F)o5)cn4)cn3)cc2s1` [compound 307, 6-[1-[[5-[5-(difluoromethyl)-1,3,4-oxadiazol-2-yl]pyridin-2-yl]methyl]imidazol-4-yl]-1,3-benzothiazol-2-amine], for which the IC50 at recombinant human HDAC6 is 11 nM; on recombinant human HDAC1, above 1e+06 nM.

Consider `NC(=O)c1cccc(-c2noc(Cc3ccc(-c4nnc(C(F)F)o4)cc3)n2)c1` [Compd. 226, 3-(5-(4-(5-(difluoromethyl)-1,3,4-oxadiazol-2-yl)benzyl)-1,2,4-oxadiazol-3-yl)benzamide], for which the IC50 was 169 nM on recombinant human HDAC6 and above 200000 nM at recombinant human HDAC1.

As for `Nc1nc2ccc(-c3cn(Cc4ncc(-c5nnc(C(F)F)o5)cc4F)nn3)cc2s1` [compound 342, 6-[1-[[5-[5-(difluoromethyl)-1,3,4-oxadiazol-2-yl]-3-fluoropyridin-2-yl]methyl]triazol-4-yl]-1,3-benzothiazol-2-amine], the values for the IC50 on recombinant human HDAC6 and at recombinant human HDAC1 were 32 nM and above 1e+06 nM, respectively.

`CN(Cc1ccncc1)Cc1ccc(-c2nc(Cc3c(F)cc(-c4nnc(C(F)F)o4)cc3F)no2)cc1` [compound 254, N-(4-(3-(4-(5-(difluoromethyl)-1,3,4-oxadiazol-2-yl)-2,6-difluorobenzyl)-1,2,4-oxadiazol-5-yl)benzyl)-N-methyl-1-(pyridin-4-yl)methanamine]: the results for the half-inhibitory concentration (IC50) on recombinant human HDAC6 and on recombinant human HDAC1 were 361 nM and above 200000 nM, respectively.

Consider `Fc1cc(-c2nnc(C(F)F)o2)cnc1Cn1nnc(-c2cccc(-c3nc4c([nH]3)CCNC4)c2)n1` [compound 353, 2-(difluoromethyl)-5-[5-fluoro-6-[[5-[3-(4,5,6,7-tetrahydro-1H-imidazo[4,5-c]pyridin-2-yl)phenyl]tetrazol-2-yl]methyl]pyridin-3-yl]-1,3,4-oxadiazole], for which the concentration for half-maximal inhibition (IC50) at recombinant human HDAC6 is 42 nM; on recombinant human HDAC1, above 1e+06 nM.

For the compound `O=C(c1ccc(-c2nnn(Cc3ccc(-c4nnc(C(F)F)o4)cc3)n2)cc1)N1CCOCC1` [compound 230, (4-(2-(4-(5-(difluoromethyl)-1,3,4-oxadiazol-2-yl)benzyl)-2H-tetrazol-5-yl)phenyl)(morpholino)methanone], the IC50 at recombinant human HDAC6 is 187 nM; at recombinant human HDAC1, above 200000 nM.

`CNc1ncc2cc(-c3cn(Cc4c(F)cc(-c5nnc(C(F)F)o5)cc4F)nn3)ccc2n1` [compound 392, 6-[1-({4-[5-(difluoromethyl)-1,3,4-oxadiazol-2-yl]-2,6-difluorophenyl}methyl)-1H-1,2,3-triazol-4-yl]-N-methylquinazolin-2-amine]: the IC50 on recombinant human HDAC6 came to 102 nM; at recombinant human HDAC1, 1e+06 nM.

As to `FC(F)c1nnc(-c2ccc(Cn3nnc(-c4cncc(Br)c4)n3)cc2)o1` [compound 82, 2-(4-((5-(5-bromopyridin-3-yl)-2H-tetrazol-2-yl)methyl)phenyl)-5-(difluoromethyl)-1,3,4-oxadiazole], the IC50 at recombinant human HDAC6 was 33 nM; on recombinant human HDAC1 it was above 200000 nM.
